For one series, the target named is MtnN (Borrelia burgdorferi, UniProt O50860). The experiment in a line: UV spectrophotometric MTN activity and kinetics assay, MtnN. As to conditions: pH 7, mean ± SEM; for Km: substrate kinetics. In kind it is biochemical.
Another series deals with Bgp (Borrelia burgdorferi, UniProt Q9F952). The experiment in a line: UV spectrophotometric MTN activity and kinetics assay, Bgp. In kind it is biochemical. To be noted: pH 7, mean ± SEM; for Km: substrate kinetics.
The target in a further series is Pfs (Borrelia burgdorferi, UniProt O50162). The experiment in a line: UV spectrophotometric MTN activity and kinetics assay, Pfs. To be noted: pH 5, mean ± SEM; for Km: substrate kinetics. In kind it is biochemical.
Another series deals with Trichomonas vaginalis. As to conditions: cultured parasites; cited from earlier work.
In series [1] the test system is B. burgdorferi strain N40. The experiment in a line: BacTiter-Glo bioluminescent cell viability assay. The series is classed as cell-based, Borrelia burgdorferi. As to conditions: Borreliella burgdorferi, N40, 24 h, read-out: IC50 (cell viability).
The next series deals with Plasmodium falciparum. To be noted: purine-less cell death in malarial cultures; cited from earlier work.
Series [2] deals with C[C@H]1O[C@@H](n2cnc3c(N)ncnc32)[C@H](O)[C@@H]1O. Put plainly: UV spectrophotometric MTN activity and kinetics assay, Bgp. The series is classed as biochemical, Borrelia burgdorferi. To be noted: other: Bgp, substrate kinetics, pH 7, mean ± SEM.
Substrate in series [3]: C[C@H]1O[C@@H](n2cnc3c(N)ncnc32)[C@H](O)[C@@H]1O
The experiment in a line: UV spectrophotometric MTN activity and kinetics assay, MtnN. To be noted: other: MtnN, substrate kinetics, pH 7, mean ± SEM. In kind it is biochemical, Borrelia burgdorferi.

Substrate in series [4]: C[C@H]1O[C@@H](n2cnc3c(N)ncnc32)[C@H](O)[C@@H]1O
The experiment in a line: UV spectrophotometric MTN activity and kinetics assay, Pfs. The series is classed as biochemical, Borrelia burgdorferi. As to conditions: other: Pfs, substrate kinetics, pH 5, mean ± SEM.

“And” between values parts separate entries of the source, which are not always exact repeats. Identical values can stand only once.

Here are results for ten molecules from article PMC6881558 (Biochimica et biophysica acta. General subjects, 2019).

In general, kcat refers to the number of substrate molecules converted per active site and unit of time at saturation. One may read the Km as the concentration of substrate that gives half-maximal velocity. The IC50 is the concentration that gives 50% inhibition. As a reminder, the kcat/Km is the second-order rate constant that governs catalysis at low substrate concentration.

As to 5’-methylthioadenosine [MTA], the values for the kcat on MtnN, on Bgp and at Pfs were 1.55 ± 0.083 s⁻¹, 1.85 ± 0.333 s⁻¹ and 1.78 ± 0.05 s⁻¹, respectively. Also, the Km at MtnN is 9.1 µM and 9.09 µM; on Bgp, 0.49 ± 0.01 µM; on Pfs, 0.61 ± 0.16 µM.
For `Nc1nc(F)nc2c1ncn2[C@H]1C[C@H](O)[C@@H](CO)O1` [2-fluoro-2’-deoxyadenosine], the IC50 in the series on Trichomonas vaginalis is 106 nM.
Regarding `CCCCSCC1CN(Cc2c[nH]c3c(N)ncnc23)CC1O` (centres unmarked) [BuT-DADMe-ImmA, 1-[(9-deazaadenin-9-yl)methyl]-3-hydroxy-4-(butylthiomethyl)pyrrolidine], the 50% inhibitory concentration (IC50) in [1] was 0.38 µg/mL and ~100 nM.
As to `Nc1ncnc2c(C3N[C@H](CO)[C@@H](O)[C@H]3O)c[nH]c12` (some centres unmarked) [Immucillin-A (ImmA), Immucillin-A], the IC50 in the series on Plasmodium falciparum was 35 nM.
As to `CSCC1CN(Cc2c[nH]c3c(N)ncnc23)CC1O` (centres unmarked) [MT-DADMe-ImmA, 1-[(9-deazaadenin-9-yl)methyl]-3-hydroxy-4-(methylthiomethyl) pyrrolidine], the IC50 in [1] is 0.31 µg/mL and ~100 nM.
For `Nc1ncnc2c1ncn2[C@@H]1O[C@H](CSCC[C@H](N)C(=O)O)[C@@H](O)[C@H]1O` [SAH, S-adenosylhomocysteine], the kcat stood at 0.55 ± 0.017 s⁻¹ at MtnN, 1.75 ± 0.2 s⁻¹ on Bgp and 1.57 ± 0.083 s⁻¹ on Pfs. In addition, the Km at MtnN was found to be 2.04 ± 0.44 µM; at Bgp it was 1.96 ± 0.67 µM; on Pfs, 0.75 ± 0.16 µM.
As for `CC1(C)S[C@@H]2[C@H](NC(=O)[C@H](N)c3ccccc3)C(=O)N2[C@H]1C(=O)O` [ampicillin], in [1], the concentration for half-maximal inhibition (IC50) was 1.07 µg/mL and 3.01 µM.
In the case of Bgp (Borreliella burgdorferi), in series [2], the Km was 1.79 ± 0.52 µM, the kcat turned out to be 1.53 ± 0.467 s⁻¹ and the kcat/Km is 850000 ± 267000 M⁻¹ s⁻¹.

B1: MtnN (Borreliella burgdorferi B31) (protein)
chain: NESKINTPNENSQSNILIISATKAEIEEINKIIQNKKYISIEEHRRKKKIAIGKLMDHNIITIATGVGKINTALWTSYIISKYKISHIINAGVASGIYSDKNKFIKIGDVVISTETTSYDFDLHRFGYEIGHVPEHPKKFKANTALIRKTSKIKINNITSYMGLIITGDQFIDHQTFQEIPEEFENAIAIDMESAAMAQVAYGFKIPFIIIRGISDIVNNENNYDDYKKFLKKASSSSAKIVENLIKLM
Consider B1, for which, in series [3], the Km was 10.5 µM and 10.46 ± 0.75 µM; the kcat was found to be 0.733 ± 0.0167 s⁻¹; the kcat/Km worked out at 66700 ± 5000 M⁻¹ s⁻¹.

B2: Pfs (Borreliella burgdorferi B31) (protein)
chain: MILIISAMQEESEEINKILDNKEEIVLNDYLENKKIYKGKILGKDVISLTTGIGKVNAATWSSQIISKYKITHIINSGSSGGIKENSNLKILDIIVSSETAYYDFDLTKFGHKIGQVPNLPQKFKADEELLKKVANIVDNKLLNIDIHIGLILTGDQFVDNEKNLETIKKNFKDALAVDMEGAAIAQVAHIFKIPFIIIRSISDLPNNKDNHIDFNKFLKTSSINSSKMTKELIRLI
Take B2: in series [4], the Km is 1.37 ± 0.37 µM, the kcat stood at 2.7 ± 0.15 s⁻¹ and the specificity constant (kcat/Km) amounted to 1.97e+06 ± 400000 M⁻¹ s⁻¹.
